# Results taken from article PMC4624469 (Synapse (New York, N.Y.), 2015).
# Where “and” joins values, the source holds several entries; their conditions need not be identical. Equal values may be shown once. Entries after “also recorded” stand apart in the source; their conditions may differ. Read-outs that look alike come from different tables or passages of the source.
# How the values were obtained:
# [1] = test system: D3R; settings: cited from earlier work
# [2] = ref Mukherjee et al., 2000; cited from earlier work
# [3] = molecular target: D2R high-affinity (D2Rhigh) sites; settings: read-out: Kd for D2Rhigh, 1996, cited from earlier work
# [4] = test system: D3R; settings: human brain; ref Tziortzi et al., 2011; cited from earlier work
# [5] = molecular target: D2RLong; settings: read-out: D2RLong Ki; with 3H-spiperone; ref Stark et al., 2007; cited from earlier work
# [6] = test system: D2R/D3R; test: PET/CT of 18F-fallypride in wild type and D2R knock-out mice; assay type: in vivo
# [7] = molecular target: D2R/D3R (Mus musculus, UniProt P30728); test: as above; assay type: in vivo; settings: D2R knock-out mice, PET
# D2R/D3R (Mus musculus, UniProt P30728), sequence (P30728 whole entry): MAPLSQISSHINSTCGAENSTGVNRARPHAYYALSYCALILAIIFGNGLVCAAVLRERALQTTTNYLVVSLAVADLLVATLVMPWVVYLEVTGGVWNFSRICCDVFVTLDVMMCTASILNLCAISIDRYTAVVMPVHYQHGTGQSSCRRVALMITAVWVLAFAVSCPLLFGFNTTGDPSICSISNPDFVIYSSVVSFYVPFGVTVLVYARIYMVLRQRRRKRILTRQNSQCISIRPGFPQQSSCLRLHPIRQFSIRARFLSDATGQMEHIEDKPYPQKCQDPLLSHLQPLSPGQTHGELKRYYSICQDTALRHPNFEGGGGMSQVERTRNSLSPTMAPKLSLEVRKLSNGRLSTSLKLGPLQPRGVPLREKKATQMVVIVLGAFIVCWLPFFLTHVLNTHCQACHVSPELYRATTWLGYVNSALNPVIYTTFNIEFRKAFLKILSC
# [8] = test system: dopamine D3R, D2Rhigh and D2Rlow receptors; test: Approximate levels of 18F-fallypride bound to receptor subtypes; settings: in vivo levels in striatum
# [9] = molecular target: D2RShort; settings: read-out: D2RShort Ki; with 3H-spiperone; ref Stark et al., 2007; cited from earlier work
# [10] = test system: dopamine D2 receptor (D2R)/D3R; test: In vivo rat PET: drug-induced displacement of 18F-fallypride; settings: for 18F-Fallypride displacement in vivo (change), Dorsal Striatum / 18F-Fallypride displacement in vivo (change), Ventral Striatum: 90 min post 18F-fallypride
# [11] = test system: dopamine D2 receptor (D2R)/D3R; assay type: binding, rabbit
# [12] = test system: dopamine D2 receptor (D2R)/D3R
# [13] = Brain uptake / approximated brain concentration after intravenous injection; assay type: in vivo, rat; settings: assuming uptake like 11C-5-OH-DPAT
# [14] = reason for HPbCD vehicle; ref Xi et al., 2004; Gilbert et al. 2005; cited from earlier work
# [15] = molecular target: D2 Receptor; settings: read-out: Binding Affinity D2 Receptor, cited from earlier work
# [16] = molecular target: D3 Receptor; settings: read-out: Binding Affinity D3 Receptor, cited from earlier work
# [17] = test system: D3 Receptor; test: Binding affinity of drugs at D3 receptor; settings: for In Vitro D3 Selectivity: D2/D3 affinity ratio of the cited Table 1 values
# [18] = In Vitro and In Vivo PET, ref Mukherjee et al., 2000, Shi et al., 2004
# [19] = BPND KO/BPND WT, mice, listed as 18F-fallypride
# [20] = wild-type mice, PET, cerebellum reference
# [21] = intravenous dose of 0.015 mg/kg
# [22] = rat sagittal slices, 10 µM drug, dorsal and ventral striata
compound,measurement,setting,value
"CCCN([11CH2]CC)C1CCc2c(O)cccc2C1 (racemic) [11C-5-OH-DPAT, 11C-(R,S)-5-hydroxy-2-(di-n-propylamino)tetralin]",Findings (receptor subtype binding),[1]; [18],D2Rhigh and some D3R (yet to be confirmed)
same,Uptake in the rat brain,[2],approximately 1 % of the injected dose
"CCCN(CCCCC[18F])C1CCc2c(O)cccc2C1 (racemic) [18F-5-OH-FPPAT, (R,S)-2-(N-propyl-N-(5-^18F-fluoropentyl)-5-hydroxyaminotetralin]",Findings (receptor subtype binding),[1]; [18],D2Rhigh and some D3R (yet to be confirmed)
CCCN(CCC)C1CCc2ccc(O)cc2C1 (centres unmarked) [3H-7-OH-DPAT],Findings (receptor subtype binding),"[1]; In Vitro, ref Gonzalez and Sibley, 1995",D3R binding at low concentrations and D2Rhigh at higher concentrations
CCCN(CCC)C1CCc2ccc(O)cc2C1 (centres unmarked) [7-OH-DPAT],Kd,[3]; ref van Vliet et al.,56 nM and 89 nM
CC[11CH2]N1CCO[C@@H]2c3cc(O)ccc3CCC21 (some centres unmarked) [11C-PHNO],"D3R binding fraction, substantia nigra and hypothalamus",[4],100%
same,"D3R binding fraction, ventral striatum",[4],26%
"C=CCN1CCC[C@H]1CNC(=O)c1cc(CCC[18F])cc(OC)c1OC [18F-Fallypride, (S)-N-[(1-allyl-2-pyrrolidinyl)methyl]-5-(3-[18F]fluoropropyl)-2,3-dimethoxybenzamide]",Ki,[5],2.2 nM
same,"fD3 (fraction of total binding to D3 receptors), Dorsal Striatum","[6]; BPND KO/BPND WT, mice",0%
same,"fD3 (fraction of total binding to D3 receptors), Hypothalmus","[6]; BPND KO/BPND WT, mice",98.5%
same,"fD3 (fraction of total binding to D3 receptors), Substantia nigra/ Ventral tegmental area","[6]; BPND KO/BPND WT, mice",99.2%
same,"fD3 (fraction of total binding to D3 receptors), Ventral Striatum","[6]; BPND KO/BPND WT, mice",15.6%
same,"fD3 (fraction of total binding to D3 receptors), Hypothalmus",[6]; [19],~ 100%
same,"fD3 (fraction of total binding to D3 receptors), Substantia nigra/ Ventral tegmental area",[6]; [19],~ 100%
same,"fD3 (fraction of total binding to D3 receptors), Ventral Striatum",[6]; [19],15%
same,"BPND WT, Dorsal Striatum",[6]; [20],5.30
same,"BPND WT, Hypothalmus",[6]; [20],1.38
same,"BPND WT, Substantia nigra/ Ventral tegmental area",[6]; [20],0.81
same,"BPND WT, Ventral Striatum",[6]; [20],3.51
same,"BPND KO, Hypothalmus",[7],1.36
same,"BPND KO, Substantia nigra/ Ventral tegmental area",[7],0.81
same,"BPND KO, Ventral Striatum",[7],0.55
same,"BPND KO, Dorsal Striatum",[7]; small negative values listed as 0,0
same,Level of 18F-fallypride bound to D2Rhigh,[8],~60%
same,Level of 18F-fallypride bound to D2Rlow,[8],~20%
same,Level of 18F-fallypride bound to D3R,[8],~20%
same,Ki,[9],2.1 nM
CCCN(CC=C[125I])C1CCc2ccc(O)cc2C1 (centres unmarked) [125I-7-OH-PIPAT],Findings (receptor subtype binding),"[1]; In Vitro, ref Mugnani et al., 2013, Gurevich and Joyce, 1999",D3R binding; D2Rhigh binding not known
CCCN(CCC)[C@@H]1CCc2ccc(O)cc2C1 [(R)-7-OH-DPAT],"18F-Fallypride displacement in vivo (change), Dorsal Striatum","[10]; 0.015 mg/kg iv, rat PET",−22% and −21.5%
same,"18F-Fallypride displacement in vivo (change), Ventral Striatum","[10]; 0.015 mg/kg iv, rat PET",−29% and −28.7%
same,Nondisplaced 18F-Fallypride,"[10]; 0.015 mg/kg iv, rat PET",71 to 78%
same,displacement of 18F-fallypride in the ventral striatum,"[10]; 0.015 mg/kg iv, rat PET",29%
same,dorsal striatum 18F-fallypride binding reduced by,"[10]; 0.015 mg/kg iv, rat PET",22%
same,"18F-Fallypride displacement in vivo (change), Dorsal Striatum","[10]; 0.06 mg/kg iv, rat PET",−32.9%
same,"18F-Fallypride displacement in vivo (change), Ventral Striatum","[10]; 0.06 mg/kg iv, rat PET",−43.4%
same,Nondisplaced 18F-Fallypride,"[10]; 0.06 mg/kg iv, rat PET",57 to 67%
same,"18F-Fallypride displacement in vivo (change), Dorsal Striatum","[10]; 0.38 mg/kg iv, rat PET",−67.9%
same,"18F-Fallypride displacement in vivo (change), Ventral Striatum","[10]; 0.38 mg/kg iv, rat PET",−75%
same,Nondisplaced 18F-Fallypride,"[10]; 0.38 mg/kg iv, rat PET",25 to 32%
same,"18F-Fallypride displacement in vivo (change), Dorsal Striatum","[10]; 1.88 mg/kg iv, rat PET",−58% and −57.6%
same,"18F-Fallypride displacement in vivo (change), Ventral Striatum","[10]; 1.88 mg/kg iv, rat PET",−77% and −76.7%
same,Nondisplaced 18F-Fallypride,"[10]; 1.88 mg/kg iv, rat PET",23 to 42%
same,displacement of 18F-fallypride in the ventral striatum,"[10]; 1.88 mg/kg iv, rat PET",77%
same,dorsal striatum 18F-fallypride binding reduced by,"[10]; 1.88 mg/kg iv, rat PET",58%
same,18F-fallypride displaced in vivo,[10]; dose of 1.88 mg/kg,greater than 50%
same,18F-fallypride displaced in vivo,[10]; [21],approximately 20%
same,Kd,"[3]; ref Gonzalez and Sibley, 1995, van Vliet et al.",56 nM and 89 nM
same,18F-fallypride binding reduced by,"[11]; 10 nM drug, rabbit nucleus accumbens",10–15%
same,18F-fallypride binding reduced by,"[11]; 10 µM drug, all regions in rabbit",≥ 85%
same,18F-fallypride displaced,"[11]; rabbit sagittal slices, lower doses, olfactory tubercle and nucleus accumbens",approx. 15%
same,18F-fallypride binding reduced by,"[12]; 10 nM drug, rat ventral striatum (VST) and dorsal striatum (DST)",10–15%
same,18F-fallypride binding reduced by,"[12]; 10 µM drug, all regions in rat",≥ 85%
same,18F-fallypride displaced,"[12]; rat horizontal slices, 100 nM drug",approx. 30%
same,18F-fallypride displaced,"[12]; rat horizontal slices, 10 µM drug",exceeded 80%
same,18F-fallypride displaced,"[12]; rat horizontal slices, micromolar concentration",about 60%
same,18F-fallypride displaced,"[12]; rat sagittal slices, 10 µM drug, dorsal striatum",approx. 75%
same,Approximated brain concentration,[13]; dose of 1.88 mg/kg,approximately 100 nM
same,Approximated brain concentration,[13]; [21],0.6 to 1 nM
COc1ccccc1N1CCN(CCCCNC(=O)c2ccc3ccccc3c2)CC1 [BP 897],"18F-fallypride displaced, dorsal and ventral striatum","[10]; 3 mg/kg iv at 90 min post 18F-fallypride, rat PET",24–29%
same,Effect on 18F-fallypride binding in DSTR and VSTR,"[10]; 3.2 mg/kg at 90 min, rat PET",visible reduction
same,"18F-Fallypride displacement in vivo (change), Dorsal Striatum","[10]; 3.2 mg/kg iv in HPbCD, rat PET",−29.3%
same,"18F-Fallypride displacement in vivo (change), Ventral Striatum","[10]; 3.2 mg/kg iv in HPbCD, rat PET",−24.0%
same,Nondisplaced 18F-Fallypride,"[10]; 3.2 mg/kg iv, rat PET",70 to 76%
same,18F-fallypride displaced in vivo,"[10]; rat PET, striatum, dose not given at place",> 20%
same,18F-fallypride displaced,[12]; [22],more than 90%
same,Water solubility,[14],low water solubility
C=CCN1CCC[C@H]1CNC(=O)c1cc(CCCF)cc(OC)c1OC [Fallypride],Ki,"[15]; ref Stark et al., 2007",2.1 nM
O=C(NCCCCN1CCN(c2cccc(Cl)c2Cl)CC1)c1ccc2c(c1)Cc1ccccc1-2 [NGB 2904],Ki,"[16]; ref Heiderbreder et al., 2010",2 nM
same,Ki,"[15]; ref Heiderbreder et al., 2010",112 nM
same,Effect on 18F-fallypride binding in dorsal and ventral striatum,"[10]; 4 mg/kg iv at 90 min, rat PET",no measureable reduction; also recorded: not evident
same,"18F-Fallypride displacement in vivo (change), Dorsal Striatum","[10]; 4.0 mg/kg iv in HPbCD, rat PET",Not significant
same,"18F-Fallypride displacement in vivo (change), Ventral Striatum","[10]; 4.0 mg/kg iv in HPbCD, rat PET",Not significant
same,Nondisplaced 18F-Fallypride,"[10]; 4.0 mg/kg iv, rat PET",100%
same,18F-fallypride displaced,[12]; [22],40 to 50%
same,D3R selectivity (over D2R),[17],> 50 fold
same,In Vitro D3 Selectivity,[17],56
same,Water solubility,[14],low water solubility
CCCN1CCO[C@@H]2c3cc(O)ccc3CC[C@H]21 [PHNO],Ki,"[16]; ref Willeit et al., 2006",0.16 nM
same,Ki,"[15]; ref Willeit et al., 2006",8.5 nM
same,In Vitro D3 Selectivity,[17],53
